Results as given in paper PMC13395416 (PLOS Pathogens, 2026).
Ends that are not written are not given here. * marks the point of attachment. Biotin = O=C1N[C@H]2[C@H](CS[C@H]2CCCCC(=O)*)N1

Experiments:
SteC1-457 = molecular target: T1, SteC1-457 (Salmonella enterica, UniProt D0ZIB5); details: 5 μM MYL12A, 100 μM ATP with 20 kBq [γ-32P]ATP, 100 nM kinase, 10 mM MgCl2, pH 7.5, 30 °C
T1 construct: gene steC

[1] = molecular target: SteC_(210-429) WT, minimal active kinase domain (Salmonella Typhimurium strain 14028s, UniProt D0ZIB5 210-429); test: BLI; details: both partners purified
Chain of SteC_(210-429) WT, minimal active kinase domain (D0ZIB5 210-429): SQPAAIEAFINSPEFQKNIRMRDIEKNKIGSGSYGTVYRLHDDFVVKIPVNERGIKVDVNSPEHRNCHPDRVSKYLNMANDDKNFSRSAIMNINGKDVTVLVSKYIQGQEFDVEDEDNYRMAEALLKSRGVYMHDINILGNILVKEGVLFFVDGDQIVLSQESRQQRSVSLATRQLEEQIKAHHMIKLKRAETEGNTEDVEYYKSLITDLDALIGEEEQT

T1 sequence (D0ZIB5 whole entry): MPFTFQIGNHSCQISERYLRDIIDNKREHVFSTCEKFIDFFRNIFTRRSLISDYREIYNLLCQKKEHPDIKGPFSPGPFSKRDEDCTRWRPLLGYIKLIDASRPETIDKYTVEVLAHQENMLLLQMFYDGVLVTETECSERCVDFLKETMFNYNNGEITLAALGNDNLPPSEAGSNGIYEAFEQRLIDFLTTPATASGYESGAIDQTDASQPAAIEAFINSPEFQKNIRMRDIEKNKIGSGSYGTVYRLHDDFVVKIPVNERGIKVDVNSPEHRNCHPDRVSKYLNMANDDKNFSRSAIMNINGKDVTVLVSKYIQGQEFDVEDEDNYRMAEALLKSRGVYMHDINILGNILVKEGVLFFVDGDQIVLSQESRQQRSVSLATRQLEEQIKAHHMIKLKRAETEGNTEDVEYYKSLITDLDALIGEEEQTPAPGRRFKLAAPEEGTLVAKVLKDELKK

Molecule | radioactive kinase assay, SDS-PAGE autoradiography (SteC1-457) | Kd [1]
Nc1ncnc2c1ncn2[C@@H]1O[C@H](COP(=O)(O)OP(=O)(O)OP(=O)(O)O)[C@@H](O)[C@H]1O [ATP] | SteC1-457 mediated phosphorylation of MYL12A | –
Biotin-KGPPSSVPKSRHLTIKLTPAHSRK (peptide, UniProt O95466 190-213, looked up) [N-terminally biotinylated FMNL1 peptide (K190-K213)] | – | 7.9 µM
